Data published in US11225475B2, “Substituted pyridines as inhibitors of histone deacetylase” (Alkermes, Inc., priority 2017, dated 2022).

Tests used:
[1] = molecular target: T1, HDAC2 (Homo sapiens (Human), UniProt Q92769); assay: HDAC2 enzymatic assay (deacetylation of peptide substrate, Caliper LabChip); format: biochemical; settings: reaction time 17 hours, 25° C.
Procedure: (§1) The following describes an assay protocol for measuring the deacetylation of a peptide substrate by the enzymes HDAC2 or HDAC1. Enzyme, substrate, and cofactors are combined in a well of a microtiter plate and incubated for […] at 25° C. At the end of the incubation, the reaction is quenched by the addition of an SDS-containing buffer. Substrate and product are separated and quantified electrophoretically using the microfluidic-based LabChip 3000 Drug Discovery System from Caliper Life Sciences. The peptide substrate used in this assay is FAM-TSRHK(AC)KL-CONH2 (FAM is carboxyfluorescein). Peptide should be >98% purity by Capillary Electrophoresis. • 1. To a well of a 384-well plate, add 5 μL of 2× enzyme buffer. Using Labcyte Echo 550, add 100 nl compound. Enzyme and compound may be pre-incubated at this time if desired. • 2. Add 5 μL of 2× substrate buffer. • 3. Incubate plate at 25° C. for 17 hours. • 4. Terminate reaction by adding 40 μL of 1.55× stop buffer. • 5. Create job on a Caliper LabChip® 3000 Drug Discovery System. • 6. Load the plate and start electrophoresis using blue laser (480 nm) for excitation and green CCD (520 nm) for detection (CCD2). Reaction time=17 hours; Reaction temperature=25° C.
(§2) 1% DMSO (from compound) 1 μM FAM-TSRHK(AC)KL-CONH2 5 nM HDAC Enzyme (specific activity may vary from lot-to-lot, and enzyme concentration may need to be adjusted to yield ˜10-20% conversion of substrate to product).
(§3) Substrate and product peptides present in each sample are separated electrophoretically using the LabChip 3000 capillary electrophoresis instrument. As substrate and product peptides are separated, two peaks of fluorescence are observed. Change in the relative fluorescence intensity of the substrate and product peaks is the parameter measured, reflecting enzyme activity. Capillary electrophoregramms (RDA acquisition files) are analyzed using HTS Well Analyzer software (Caliper Life Sciences). The enzyme activity in each sample is determined as the product to sum ratio (PSR):P/(S+P), where P is the peak height of the product peptide and S is the peak height of the substrate peptide. For each compound, enzyme activity is measured at various concentrations (12 concentrations of compound spaced by 3× dilution intervals). Negative control samples (0%-inhibition in the absence of inhibitor) and positive control samples (100%-inhibition, in the presence of 20 mM EDTA) are assembled in replicates of four and are used to calculate %-inhibition values for each compound at each concentration. Percent inhibition (Pinh) is determined using following equation: Pinh=(PSR0%−PSRinh)/(PSR0%−PSR100%)*100, where PSRinh is the product sum ratio in the presence of inhibitor, PSR0% is the average product sum ration in the absence of inhibitor and PSR100% is the average product sum ratio in 100%-inhibition control samples.
(§4) The IC50 values of inhibitors are determined by fitting the inhibition curves (Pinh versus inhibitor concentration) by 4 parameter sigmoidal dose-response model using XLfit 4 software (MDS).

[2] = molecular target: HDAC1 (Homo sapiens (Human), UniProt Q13547); assay: HDAC1 enzymatic assay (deacetylation of peptide substrate, Caliper LabChip); format: biochemical; settings: reaction time 17 hours, 25° C.
Sequence of HDAC1 (Q13547 whole entry): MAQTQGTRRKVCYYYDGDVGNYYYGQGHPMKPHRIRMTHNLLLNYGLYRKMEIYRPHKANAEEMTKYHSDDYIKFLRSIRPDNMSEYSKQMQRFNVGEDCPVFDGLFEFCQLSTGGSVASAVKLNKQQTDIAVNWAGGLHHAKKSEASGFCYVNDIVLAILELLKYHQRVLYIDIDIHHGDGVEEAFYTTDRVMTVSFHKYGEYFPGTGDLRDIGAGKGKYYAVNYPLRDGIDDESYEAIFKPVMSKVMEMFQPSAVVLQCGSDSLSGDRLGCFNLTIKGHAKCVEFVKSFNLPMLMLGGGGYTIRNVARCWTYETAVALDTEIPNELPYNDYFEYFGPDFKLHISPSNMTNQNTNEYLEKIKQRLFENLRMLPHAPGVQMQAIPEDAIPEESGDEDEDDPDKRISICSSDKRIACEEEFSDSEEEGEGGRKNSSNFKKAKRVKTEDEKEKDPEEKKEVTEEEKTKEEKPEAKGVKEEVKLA
Procedure: as §1, §2, §3, §4

[3] = molecular target: T1, HDAC2; assay: HDAC2 enzymatic inhibition assay in SH-SY5Y cell lysate (HDAC-Glo 2); format: cell-based; settings: SH-SY5Y cells, five hours incubation
Procedure: SH-SY5Y cells (Sigma) were cultured in Eagle's Modified Essential Medium supplemented with 10% fetal bovine serum and pen/strep. Twenty-four hours prior to compound dosing 20 uL of cells were plated in white 384 well plates at a density of 1,500 cells/well. Compounds were serially diluted in neat DMSO and then diluted 1:100 v/v into media without FBS and mixed. Media was removed from the plated cells and the diluted compounds in serum free media (1% v/v final DMSO) were added and incubated at 37.0 for five hours. Ten uL of HDAC-Glo 2 reagent with 0.1% Triton X-100 was then added, the plate was mixed and allowed to develop at room temperature for 100 minutes. Plates were then read with a Spectramax LMax luminometer employing a 0.4s integration time. Dose response curves were constructed with normalized data where CI-994 at 100 uM was defined as 100% inhibition and DMSO alone as 0% inhibition.

[4] = tested on: human erythroid (CFU-E, BFU-E) progenitors; assay: Erythroid CFU assay (human bone marrow clonogenic progenitors); format: cell-based; settings: for Erythroid % control remaining @ 10 uM dose: 14 days in culture
Procedure: (§5) Clonogenic progenitors of human erythroid (CFU-E, BFU-E), granulocyte-monocyte (CFU-GM) and multipotential (CFU-GEMM) lineages were assessed in a semi-solid methylcellulose-based media formulation containing rhIL-3 (10 ng/mL), rhGM-SCF (10 ng/mL), rhSCF (50 ng/mL) and Epo (3 U/mL).
(§6) Normal human bone marrow light density cells derived from normal bone marrow (NorCal Biologics, California) and qualified at ReachBio, were stored in the gaseous phase of liquid nitrogen (−152° C.) until required for the assay. On the day of the experiment, the cells were thawed rapidly, the contents of each vial was diluted in 10 mL of Iscove's modified Dulbecco's medium containing 10% fetal bovine serum (IMDM+10% FBS) and washed by centrifugation (approximately 1200 r.p.m. for 10 minutes, room temperature). The supernatant was discarded and the cell pellets resuspended in a known volume of IMDM+10% FBS. A cell count (3% glacial acetic acid) and viability assessment (trypan blue exclusion test) was performed for the bone marrow sample.
(§7) On the day of the experiment, the compounds were dissolved in DMSO to a stock concentration of 10 mM. Serial dilutions were prepared from the stock concentration to achieve concentrations of 2 and 0.4 mM. When added to the methylcellulose-based media at 1:1000 (v/v), the final test concentrations of 10, 2 and 0.4 μM were achieved. Additionally, 5-FU was evaluated at 1.0, 0.1 and 0.01 μg/mL.
(§8) Clonogenic progenitors of the human erythroid (CFU-E and BFU-E) and myeloid (CFU-GM) lineages were set up in the methylcellulose-based media formulations described above. All compounds were added to the medium to give the final desired concentrations ([…] 5-Fluorouracil (Sigma Aldrich) was used as a positive control for progenitor proliferation (inhibition of colony growth) and was introduced to the human bone marrow cultures at 1.0, 0.1, and 0.01 μg/mL. Solvent control cultures (containing no compound but 0.1% DMSO) as well as standard controls (containing no compound and no DMSO) were also initiated.
(§9) Human myeloid and erythroid progenitor assays were initiated at 2.0×10^4 cells per culture. Following 14 days in culture, myeloid and erythroid colonies were assessed microscopically and scored by trained personnel. The colonies were divided into the following categories based on size and morphology: CFU-E, BFU-E, CFU-GM and CFU-GEMM.
(§10) The mean±one standard deviation of three replicate cultures was calculated for progenitors of each category (CFU-E, BFU-E, etc.). Two-tailed t-tests were performed to assess if there was a difference in the number of colonies generated between solvent control and treated cultures. Due to the potential subjectivity of colony enumeration, a p value of less than 0.01 is deemed significant. To calculate the concentration of 50% inhibition of colony growth (IC50) for each compound, a dose response curve was generated plotting the log of the compound concentration versus the percentage of control colony growth using XLfit software (IDBS). The concentration of 50% inhibition of colony growth (IC50) was calculated based on the sigmoid curve fit using Dose-Response, One-Site Model formula: y=A+[(B−A)/(1+((C/x)^D))], where A=the initial value (baseline response), B=maximum response, C=center (drug concentration that provokes a response halfway between A and B) and D=slope of the curve at midpoint. Further, plots and additional dose response curves were generated using GraphPad Prism 7.0.
(§11) Erythroid (CFU-E and BFU-E), myeloid (CFU-GM) and multi-potential (CFU-GEMM) colony enumeration was performed by trained personnel. The distribution of colony types as well as general colony and cellular morphology was analyzed. For statistical analysis colony numbers in compound treated cultures were compared to the solvent control cultures. […] The experiment was used to evaluate the potential effect of test compounds on human erythroid and myeloid progenitor proliferation in a methylcellulose-based medium. […]

[5] = tested on: human myeloid (CFU-GM) progenitors; assay: Myeloid CFU assay (human bone marrow clonogenic progenitors); format: cell-based; settings: 14 days in culture
Procedure: as §5, §6, §7, §8, §9, §10, §11

T1 sequence (Q92769 whole entry): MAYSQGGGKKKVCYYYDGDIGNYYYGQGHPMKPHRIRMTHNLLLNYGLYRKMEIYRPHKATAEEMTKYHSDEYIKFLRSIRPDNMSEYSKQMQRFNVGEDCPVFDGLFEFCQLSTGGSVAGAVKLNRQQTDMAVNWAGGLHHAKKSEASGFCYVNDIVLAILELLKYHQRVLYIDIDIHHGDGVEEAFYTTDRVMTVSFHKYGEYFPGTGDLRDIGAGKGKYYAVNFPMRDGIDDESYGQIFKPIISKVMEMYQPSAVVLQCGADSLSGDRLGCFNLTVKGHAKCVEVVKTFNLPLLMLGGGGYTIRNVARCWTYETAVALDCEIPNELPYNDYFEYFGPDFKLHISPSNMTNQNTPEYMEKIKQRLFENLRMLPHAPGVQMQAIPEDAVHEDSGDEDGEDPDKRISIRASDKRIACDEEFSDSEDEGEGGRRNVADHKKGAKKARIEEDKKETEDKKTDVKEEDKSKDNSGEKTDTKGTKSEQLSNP

Structure (SMILES)	IC50 [1]	IC50 [2]	IC50 [3]	Erythroid % control remaining @ 10 uM dose [4]	Myeloid % control remaining @ 10 uM dose [5]	inhibitory effects as positive control for toxicity ([4]; erythroid and myeloid progenitor assays, 1.0, 0.1 and 0.01 μg/mL)
Nc1ccc(-c2ccc(F)cc2F)nc1NC(=O)N1Cc2cnc(CN3CC(F)C3)cc2C1 [Compound 4]	500 to 5000 nM	100 to 500 nM	1000 to 1500 nM	62%	102%	
COCc1cc2c(cn1)CN(C(=O)Nc1nc(-c3ccc(F)cc3)ccc1N)C2 [Comparator 6, reference compound]				22.9%	58.9%	
Cc1cc2c(cn1)CN(C(=O)Nc1nc(-c3ccc(F)cc3)ccc1N)C2 [Comparator 5, reference compound]				25.7%	66.1%	
CCc1ncc2c(n1)CN(C(=O)Nc1nc(-c3ccc(F)cc3F)ccc1N)C2 [Compound 7]	500 to 5000 nM	100 to 500 nM	100 to 1000 nM	69%	105%	
Nc1ccc(-c2ccc(F)cc2)nc1NC(=O)N1Cc2cc(CN3CC(F)C3)cnc2C1 [Comparator 7, reference compound]				35%	82%	
O=c1[nH]cc(F)c(=O)[nH]1 [Compound 5-FU, 5-Fluorouracil, reference compound]						exactly as expected
CCc1ncc2c(n1)CN(C(=O)Nc1nc(-c3ccc(F)cc3)ccc1N)C2 [Comparator 9, reference compound]				60%	79%	
Cc1ncc2c(n1)CN(C(=O)Nc1nc(-c3ccc(F)cc3F)ccc1N)C2 [Compound 5]	500 to 5000 nM	500 to 5000 nM	1000 to 1500 nM	69%	82%	
Cc1nc2c(s1)CN(C(=O)Nc1nc(-c3ccc(F)cc3)ccc1N)C2 [Comparator 2, reference compound]				45%	103%	

Now from value to compound, other results behind:

IC50 [1]	IC50 [2]	IC50 [3]	Erythroid % control remaining @ 10 uM dose [4]	Myeloid % control remaining @ 10 uM dose [5]	Structure (SMILES)	inhibitory effects as positive control for toxicity ([4]; erythroid and myeloid progenitor assays, 1.0, 0.1 and 0.01 μg/mL)
500 to 5000 nM	500 to 5000 nM	> 1500 nM	69%	82%	COCCn1cc2c(n1)CN(C(=O)Nc1nc(-c3ccc(Cl)s3)ccc1N)C2 [Compound 6]	
			28%	39%	COCCn1cc2c(n1)CN(C(=O)Nc1nc(-c3ccc(F)cc3)ccc1N)C2 [Comparator 4, reference compound]	
100 to 500 nM	100 to 500 nM	100 to 1000 nM	38%	77%	CCn1cc2c(n1)CN(C(=O)Nc1nc(-c3ccc(F)cc3F)ccc1N)C2 [Compound 10]	
500 to 5000 nM	100 to 500 nM	100 to 1000 nM	72%	75%	COCCn1cc2c(n1)CN(C(=O)Nc1nc(-c3ccccc3F)ccc1N)C2 [Compound 8]	
500 to 5000 nM	100 to 500 nM	1000 to 1500 nM	62%	92%	COCc1ccc2c(n1)CN(C(=O)Nc1nc(-c3ccc(F)cc3F)ccc1N)C2 [Compound 2]	
			18%	9%	COCCn1cc2c(n1)CN(C(=O)Nc1nc(-c3cccs3)ccc1N)C2 [Comparator 3, reference compound]	
			22%	34%	CCn1cc2c(n1)CN(C(=O)Nc1nc(-c3ccc(F)cc3)ccc1N)C2 [Comparator 1, reference compound]	
			33%	70%	COCc1ccc2c(n1)CN(C(=O)Nc1nc(-c3ccc(F)cc3)ccc1N)C2 [Comparator 8, reference compound]	
